Source: patent US8865756B2, “Inhibitors of HCV NS5A” (Presidio Pharmaceuticals, Inc., priority 2008, dated 2014)
pEC50: −log10 of the molar value.

System: HCV 1b_Huh-Luc/Neo-ET cell line persistently expressing a bicistronic genotype 1b replicon in Huh 7 cells
Assay: HCV replicon assay (luciferase readout)
Format: cell-based
Details: Hepatitis C virus, Huh-7, 72 h, read-out: Inhibition of HCV genotype 1b
Method: Biological activity of the compounds of the invention was determined using an HCV replicon assay. The HCV 1b_Huh-Luc/Neo-ET cell line persistently expressing a bicistronic genotype 1b replicon in Huh 7 cells was obtained from ReBLikon GMBH. This cell line was used to test compound inhibition using luciferase enzyme activity readout as a measurement of compound inhibition of replicon levels.
On Day 1 (the day after plating), each compound is added in triplicate to the cells. Plates incubated for 72 h prior to running the luciferase assay. Enzyme activity was measured using a Bright-Glo Kit (cat. number E2620) manufactured by Promega Corporation. The following equation was used to generate a percent control value for each compound. % Control=(Average Compound Value/Average Control)*100
The EC50 value was determined using GraphPad Prism and the following equation: Y=Bottom+(Top−Bottom)/(1+10^((Log IC50−X)*HillSlope))
EC50 values of compounds are determined several times in the replicon assay.
Example compounds of the disclosed invention are illustrated in Tables 1-14 attached as appendices. The tables show inhibitory activity of many of the example compounds with respect to HCV 1b. […] The tables further provide mass spectrometry results for the synthesized example compounds.

| SMILES | pEC50 |
| --- | --- |
| CC(C)(C)OC(=O)N[C@@H](C(=O)N1CCC[C@H]1c1ncc(C#Cc2ccc(-c3cnc([C@@H]4CCCN4C(=O)[C@H](NC(=O)OC(C)(C)C)c4ccccc4)[nH]3)cc2)[nH]1)c1ccccc1 [Compound 99] | > 9.00 |
| O=C(N[C@@H](C(=O)N1CCC[C@H]1c1ncc(C#Cc2ccc(-c3cnc([C@@H]4CCCN4C(=O)[C@H](NC(=O)C4CC4)c4ccccc4)[nH]3)cc2)[nH]1)c1ccccc1)C1CC1 [Compound 100] | > 9.00 |
| CC(C)(C)OC(=O)N1CCC[C@H]1c1ncc(C#Cc2ccc(-c3cnc([C@@H]4CCCN4C(=O)OC(C)(C)C)[nH]3)cc2)[nH]1 [Compound 101] | 6.00 to 8.00 |
| O=C(N[C@@H](C(=O)N1CCC[C@H]1c1ncc(C#Cc2ccc(-c3cnc([C@@H]4CCCN4C(=O)[C@H](NC(=O)N4CCOCC4)c4ccccc4)[nH]3)cc2)[nH]1)c1ccccc1)N1CCOCC1 [Compound 102] | 8.00 to 9.00 |
| CC(C)(C)OC(=O)NCC(=O)N1CCC[C@H]1c1ncc(C#Cc2ccc(-c3cnc([C@@H]4CCCN4C(=O)CNC(=O)OC(C)(C)C)[nH]3)cc2)[nH]1 [Compound 103] | 6.00 to 8.00 |
| C[C@@H](NC(=O)OC(C)(C)C)C(=O)N1CCC[C@H]1c1ncc(C#Cc2ccc(-c3cnc([C@@H]4CCCN4C(=O)[C@@H](C)NC(=O)OC(C)(C)C)[nH]3)cc2)[nH]1 [Compound 104] | 8.00 to 9.00 |
| CC(C)[C@@H](NC(=O)OC(C)(C)C)C(=O)N1CCC[C@H]1c1ncc(C#Cc2ccc(-c3cnc([C@@H]4CCCN4C(=O)[C@H](NC(=O)OC(C)(C)C)C(C)C)[nH]3)cc2)[nH]1 [Compound 105] | 6.00 to 8.00 |
| CC(C)(C)OC(=O)NC(C)(C)C(=O)N1CCC[C@H]1c1ncc(C#Cc2ccc(-c3cnc([C@@H]4CCCN4C(=O)C(C)(C)NC(=O)OC(C)(C)C)[nH]3)cc2)[nH]1 [Compound 106] | < 6.00 |
| CC(C)[C@@H](NC(=O)C1CC1)C(=O)N1CCC[C@H]1c1ncc(C#Cc2ccc(-c3cnc([C@@H]4CCCN4C(=O)[C@H](NC(=O)C4CC4)C(C)C)[nH]3)cc2)[nH]1 [Compound 107] | 8.00 to 9.00 |
| CC(=O)N[C@@H](C(=O)N1CCC[C@H]1c1ncc(C#Cc2ccc(-c3cnc([C@@H]4CCCN4C(=O)[C@H](NC(C)=O)c4ccccc4)[nH]3)cc2)[nH]1)c1ccccc1 [Compound 109] | > 9.00 |
| COC(=O)N[C@@H](C(=O)N1CCC[C@H]1c1ncc(C#Cc2ccc(-c3cnc([C@@H]4CCCN4C(=O)[C@H](NC(=O)OC)c4ccccc4)[nH]3)cc2)[nH]1)c1ccccc1 [Compound 110] | > 9.00 |
| C[C@@H](NC(=O)C1CC1)C(=O)N1CCC[C@H]1c1ncc(C#Cc2ccc(-c3cnc([C@@H]4CCCN4C(=O)[C@@H](C)NC(=O)C4CC4)[nH]3)cc2)[nH]1 [Compound 111] | 8.00 to 9.00 |
| O=C([C@H](O)c1ccccc1)N1CCC[C@H]1c1ncc(C#Cc2ccc(-c3cnc([C@@H]4CCCN4C(=O)[C@H](O)c4ccccc4)[nH]3)cc2)[nH]1 [Compound 112] | > 9.00 |
| O=C(NCC(=O)N1CCC[C@H]1c1ncc(C#Cc2ccc(-c3cnc([C@@H]4CCCN4C(=O)CNC(=O)C4CC4)[nH]3)cc2)[nH]1)C1CC1 [Compound 113] | 6.00 to 8.00 |
| CC(C)[C@@H](NC(=O)OC(C)(C)C)C(=O)N1CCC[C@H]1C(=O)Nc1ccc(C#Cc2cnc([C@@H]3CCCN3C(=O)[C@H](NC(=O)OC(C)(C)C)C(C)C)[nH]2)cc1 [Compound 114] | 6.00 to 8.00 |
| CC(C)(C)OC(=O)N[C@@H](C(=O)N1CCC[C@H]1C(=O)Nc1ccc(C#Cc2cnc([C@@H]3CCCN3C(=O)[C@H](NC(=O)OC(C)(C)C)c3ccccc3)[nH]2)cc1)c1ccccc1 [Compound 115] | > 9.00 |
| CC(C)[C@@H](NC(=O)C1CC1)C(=O)N1CCC[C@H]1C(=O)Nc1ccc(C#Cc2cnc([C@@H]3CCCN3C(=O)[C@H](NC(=O)C3CC3)C(C)C)[nH]2)cc1 [Compound 116] | 8.00 to 9.00 |
| O=C(N[C@@H](C(=O)N1CCC[C@H]1C(=O)Nc1ccc(C#Cc2cnc([C@@H]3CCCN3C(=O)[C@H](NC(=O)C3CC3)c3ccccc3)[nH]2)cc1)c1ccccc1)C1CC1 [Compound 117] | > 9.00 |
